The source of these data is the supplement of paper PMC9103864.

The subject of assay [1] is BMSC (primary human bone marrow mesenchymal stromal cells). Nature of the assay: absolute EC50 for viability; higher = less sensitive.
The test system is the same in assay [2]. Nature of the assay: drug sensitivity score (DSS); higher = more sensitive.

For `Nc1nc2cc(-c3ccc4ncc(C(=O)N5CCOCC5)n4c3)ccc2o1` [Serabelisib], the “absolute EC50 for viability” value in assay [1] is > 10 µM. This compound also registered a drug sensitivity score in assay [2] of 3.3.
With `CN1CCc2c(c3ccccc3n2Cc2ccc(C(=O)NO)cc2)C1` [Tubastatin A], the “absolute EC50 for viability” value in assay [1] turned out to be 9.93 µM. Besides, the drug sensitivity score in assay [2] was determined as 0.
Take `COc1cc([C@@H]2c3cc4c(cc3[C@@H](O[C@@H]3O[C@@H]5CO[C@@H](C)O[C@H]5[C@H](O)[C@H]3O)[C@H]3COC(=O)[C@H]23)OCO4)cc(OC)c1O` [Etoposide]: the “absolute EC50 for viability” value in assay [1] was > 10 µM. In assay [2], the drug sensitivity score was found to be 0.
As to `CC1=C(/C=C/C(C)=C/C=C/C(C)=C/C(=O)O)C(C)(C)CCC1` [Tretinoin], in assay [1], the “absolute EC50 for viability” value is > 10 µM. Further, in assay [2], the drug sensitivity score amounted to 0.
Take `Cc1cnc(-c2ccccc2C(C)C)nc1NCc1ccc(-n2ccnn2)cc1` [ML323]: the “absolute EC50 for viability” value in assay [1] is > 10 µM. For the same compound, the drug sensitivity score in assay [2] was 0.
In the case of `CCc1nc(C(N)=O)c(Nc2ccc(N3CCC(N4CCN(C)CC4)CC3)c(OC)c2)nc1NC1CCOCC1` [Gilteritinib], the “absolute EC50 for viability” value in assay [1] was > 1 µM. This compound also registered a drug sensitivity score in assay [2] of 0.8.
On to `O=C(Nc1cccc(NC(=O)c2cccc(O)c2O)c1)c1cccc(O)c1O` [MST-312], for which, in assay [1], the “absolute EC50 for viability” value turned out to be 1.22 µM. The drug sensitivity score in assay [2] came to 9.7.
On the same counts, the results for `CC(=O)O[C@@]12CO[C@@H]1C[C@H](O)[C@@]1(C)C(=O)[C@H](O)C3=C(C)[C@@H](OC(=O)[C@H](O)[C@@H](NC(=O)OC(C)(C)C)c4ccccc4)C[C@@](O)([C@@H](OC(=O)c4ccccc4)[C@H]21)C3(C)C` [Docetaxel] are > 1 µM and 5.
As for `O=c1[nH]c(=O)n([C@H]2C[C@H](O)[C@@H](CO)O2)cc1C(F)(F)F` [Trifluridine], the “absolute EC50 for viability” value in assay [1] is > 10 µM. For the same compound, the drug sensitivity score in assay [2] was found to be 0.
On the same counts, the results for `c1cc(CN2CCCNCCNCCCNCC2)ccc1CN1CCCNCCNCCCNCC1` [Plerixafor] are > 10 µM and 0.
Regarding `C[C@H]1Oc2cc(cnc2N)-c2c(nn(C)c2C#N)CN(C)C(=O)c2ccc(F)cc21`, in assay [1], the “absolute EC50 for viability” value is > 1 µM. The compound also came in with a drug sensitivity score in assay [2] of 0.2.
In the case of `CN(C)C/C=C/C(=O)Nc1cc2c(Nc3ccc(F)c(Cl)c3)ncnc2cc1O[C@H]1CCOC1` [Afatinib], in assay [1], the “absolute EC50 for viability” value was > 1 µM. In assay [2], the drug sensitivity score came to 2.9.
As to `CCCc1cc(C)[nH]c(=O)c1CNC(=O)c1cc(-c2ccnc(N3CCN(C)CC3)c2)cc2c1cnn2C(C)C` [GSK343], the “absolute EC50 for viability” value in assay [1] was > 1 µM. For the same compound, the drug sensitivity score in assay [2] amounted to 0.
For the compound `Nc1ccccc1NC(=O)c1ccc(CNC(=O)OCc2cccnc2)cc1` [Entinostat], the “absolute EC50 for viability” value in assay [1] was > 10 µM. Also, in assay [2], the drug sensitivity score stood at 3.5.
For `COc1cc2c(Oc3ccc4[nH]c(C)cc4c3F)ncnc2cc1OCCCN1CCCC1` [Cediranib], the “absolute EC50 for viability” value in assay [1] was > 1 µM. Also, in assay [2], the drug sensitivity score is 2.5.
As for `CC(=O)OC[C@H]1O[C@@H]([S-])[C@H](OC(C)=O)[C@@H](OC(C)=O)[C@@H]1OC(C)=O.CCP(CC)CC.[Au+]` [Auranofin], the “absolute EC50 for viability” value in assay [1] was found to be 1.39 µM. The compound further had a drug sensitivity score in assay [2] of 3.3.
Take `Cc1nc(NC(=O)N2CCC[C@H]2C(N)=O)sc1-c1ccnc(C(C)(C)C(F)(F)F)c1` [Alpelisib]: in assay [1], the “absolute EC50 for viability” value was > 2.5 µM. In addition, the drug sensitivity score in assay [2] was found to be 3.4.
As to `Cc1sc2c(c1C)C(c1ccc(Cl)cc1)=N[C@@H](CC(=O)Nc1ccc(OCCOCCOCCOCCNc3cccc4c3C(=O)N(C3CCC(=O)NC3=O)C4=O)cc1)c1nnc(C)n1-2` (stereo not given in full) [ARV-825], the “absolute EC50 for viability” value in assay [1] was determined as 0.036 µM. In addition, in assay [2], the drug sensitivity score is 10.1.
In the case of `Nc1cccc2c1CN(C1CCC(=O)NC1=O)C2=O` (stereo not given) [Lenalidomide], the “absolute EC50 for viability” value in assay [1] was > 100 µM. Also, the drug sensitivity score in assay [2] was determined as 0.
In the case of `O=c1ncn2nc(Sc3ccc(F)cc3F)ccc2c1-c1c(Cl)cccc1Cl` [Neflamapimod], in assay [1], the “absolute EC50 for viability” value was > 10 µM. The compound also had a drug sensitivity score in assay [2] of 0.5.
On the same counts, the results for `Cc1c(F)cc(C(=O)NC2CC2)cc1-c1ccc(C(=O)NCC(C)(C)C)cn1` [Losmapimod] are > 10 µM and 0.
On the same counts, the results for `CN(C)Cc1ccc(S(=O)(=O)n2ccc(/C=C/C(=O)NO)c2)cc1` [Resminostat] are 2.63 µM and 6.
On the same counts, the results for `CNC(=O)c1ccccc1Sc1ccc2c(/C=C/c3ccccn3)n[nH]c2c1` [Axitinib] are > 10 µM and 7.9.
For the compound `CC(C)Oc1ccc(C(=O)N[C@H](CNC(=O)CN(C)C)Cc2ccc(-c3cn4cccc([C@H](C)O)c4n3)cc2)cc1Cl`, the “absolute EC50 for viability” value in assay [1] was determined as 9.93 µM. The compound further returned a drug sensitivity score in assay [2] of 0.
On the same counts, the results for `Cc1ccc(-c2cc(C(F)(F)F)nn2-c2ccc(S(N)(=O)=O)cc2)cc1` [Celecoxib] are > 10 µM and 0.
Turning to `NC(=O)/C(=C/n1cnc(-c2cc(C(F)(F)F)cc(C(F)(F)F)c2)n1)c1cncnc1` [Eltanexor], the “absolute EC50 for viability” value in assay [1] is > 10 µM. In addition, the drug sensitivity score in assay [2] was 9.6.
Consider `C=CC(=O)Nc1cccc(Oc2nc(Nc3ccc(N4CCN(C)CC4)cc3)nc3ccsc23)c1` [Olmutinib], for which, in assay [1], the “absolute EC50 for viability” value is > 1 µM. Further, the drug sensitivity score in assay [2] is 0.
On to `C[C@@H]1C[C@H]2[C@@H]3CCC4=CC(=O)C=C[C@]4(C)[C@@]3(F)[C@@H](O)C[C@]2(C)[C@@]1(O)C(=O)CO` [Dexamethasone], for which the “absolute EC50 for viability” value in assay [1] is > 10 µM. The compound also yielded a drug sensitivity score in assay [2] of 0.
As for `C[C@@H](NC(=O)c1ncnc(N)c1Cl)c1ncc(C(=O)Nc2cc(C(F)(F)F)c(Cl)cn2)s1` [TAK-580], in assay [1], the “absolute EC50 for viability” value is > 10 µM. The same compound yielded a drug sensitivity score in assay [2] of 5.7.
On to `CN1CC[C@@H](NC(=O)Nc2ccc(C#N)cc2)C[C@@H]1c1nc2ccccc2[nH]1` [Glasdegib], for which the “absolute EC50 for viability” value in assay [1] was > 1 µM. The same compound yielded a drug sensitivity score in assay [2] of 0.
For the compound `O=C(Nc1c[nH]nc1-c1nc2ccc(CN3CCOCC3)cc2[nH]1)NC1CC1` [AT9283], in assay [1], the “absolute EC50 for viability” value stood at 0.254 µM. The same compound showed a drug sensitivity score in assay [2] of 6.
On the same counts, the results for `COc1cc2nccc(Oc3ccc(NC(=O)C4(C(=O)Nc5ccc(F)cc5)CC4)cc3)c2cc1OC` [Cabozantinib] are > 1 µM and 3.6.
For the compound `CC(C)n1cnc2c(NCCc3ccc(O)cc3)nc(-c3csc4ccccc34)nc21` [StemRegenin 1], the “absolute EC50 for viability” value in assay [1] is > 10 µM. The compound also registered a drug sensitivity score in assay [2] of 0.4.
Take `CO[C@@H](C(=O)N1Cc2[nH]nc(NC(=O)c3ccc(N4CCN(C)CC4)cc3)c2C1)c1ccccc1` [Danusertib]: in assay [1], the “absolute EC50 for viability” value is > 10 µM. Further, the drug sensitivity score in assay [2] was found to be 3.6.
In the case of `CC(C)(O)CNc1nc(Nc2ccnc(C(F)(F)F)c2)nc(-c2cccc(C(F)(F)F)n2)n1` [Enasidenib], in assay [1], the “absolute EC50 for viability” value was > 10 µM. The compound further gave a drug sensitivity score in assay [2] of 0.
For the compound `Cc1cc(F)c(C(=O)Nc2cccc(-c3nncn3C(C)C)n2)cc1-n1cnc(C2CC2)c1` [Selonsertib], the “absolute EC50 for viability” value in assay [1] was > 1 µM. Also, the drug sensitivity score in assay [2] came out at 0.
In the case of `O=C1Cc2cc(C(=O)NC3C[C@H]4CC[C@@H](C3)N4S(=O)(=O)CC3CCN(CCCC(F)(F)F)CC3)c(Cl)cc2N1` (stereo not given in full), the “absolute EC50 for viability” value in assay [1] is > 10 µM. The drug sensitivity score in assay [2] was 0.
Turning to `CN1CCN(c2cc(C(=O)Nc3ccc4c(c3)-c3c(c(C(N)=O)nn3-c3ccc(F)cc3)CC4)c(Cl)cn2)CC1` [PHA 408], the “absolute EC50 for viability” value in assay [1] was > 10 µM. For the same compound, in assay [2], the drug sensitivity score stood at 1.3.
As to `CC(C)NC[C@@H](C(=O)N1CCN(c2ncnc3c2[C@H](C)C[C@H]3O)CC1)c1ccc(Cl)cc1` [Ipatasertib], the “absolute EC50 for viability” value in assay [1] was > 10 µM. The compound also showed a drug sensitivity score in assay [2] of 4.7.
As for `Oc1ccc2c(c1)CC[C@H](c1ccccc1)[C@@H]2c1ccc(OCCN2CCCC2)cc1` [Lasofoxifene], in assay [1], the “absolute EC50 for viability” value was > 1 µM. Besides, the drug sensitivity score in assay [2] came to 0.4.
`COC(=O)c1ccc([C@H]2c3[nH]c4ccccc4c3C[C@H](C(=O)OC)N2C(=O)CCl)cc1` [RSL3]: the “absolute EC50 for viability” value in assay [1] was > 10 µM. Moreover, the drug sensitivity score in assay [2] is 0.
Take `Cn1cncc1[C@@](N)(c1ccc(Cl)cc1)c1ccc2c(c1)c(-c1cccc(Cl)c1)cc(=O)n2C` [Tipifarnib]: the “absolute EC50 for viability” value in assay [1] was > 10 µM. The drug sensitivity score in assay [2] stood at 4.4.
With `CC(=O)c1cc2c(o1)C(=O)c1ccccc1C2=O` [Napabucasin], in assay [1], the “absolute EC50 for viability” value stood at 0.64 µM. This compound showed a drug sensitivity score in assay [2] of 17.6.
For the compound `CCC(C)n1ncn(-c2ccc(N3CCN(c4ccc(OCC5COC(Cn6cncn6)(c6ccc(Cl)cc6Cl)O5)cc4)CC3)cc2)c1=O` (stereo not given) [Itraconazole], in assay [1], the “absolute EC50 for viability” value is > 5 µM. Besides, the drug sensitivity score in assay [2] was found to be 1.3.
Turning to `CN1CCN(c2ccc(C(=O)Nc3n[nH]c4ccc(Cc5cc(F)cc(F)c5)cc34)c(NC3CCOCC3)c2)CC1` [Entrectinib], the “absolute EC50 for viability” value in assay [1] is > 1 µM. In assay [2], the drug sensitivity score amounted to 0.8.
In the case of `C=CCc1cccc(/C=N/NC(=O)CN2CCN(Cc3ccccc3)CC2)c1O` [PAC-1], the “absolute EC50 for viability” value in assay [1] is > 10 µM. The same compound showed a drug sensitivity score in assay [2] of 0.5.
As for `COc1ccc(C[C@H](NC(=O)[C@H](C)NC(=O)CN2CCOCC2)C(=O)N[C@@H](Cc2ccccc2)C(=O)C2(C)CO2)cc1` (stereo in doubt) [ONX-0914], the “absolute EC50 for viability” value in assay [1] was 0.391 µM. This compound registered a drug sensitivity score in assay [2] of 16.1.
As for `NC(=O)N1CCC(CC(=O)N2CCC([C@H]3c4ncc(Br)cc4CCc4cc(Cl)cc(Br)c43)CC2)CC1` [Lonafarnib], the “absolute EC50 for viability” value in assay [1] is > 100 µM. Further, the drug sensitivity score in assay [2] is 4.4.
With `O=C(O)c1ccc2c(c1)nc(Nc1cccc(Cl)c1)c1ccncc12` [Silmitasertib], the “absolute EC50 for viability” value in assay [1] is > 10 µM. Further, the drug sensitivity score in assay [2] amounted to 2.3.
On the same counts, the results for `O=c1[nH]c(C2CCCN2)nc2c1oc1ccc(Cl)cc12` (stereo not given) are > 10 µM and 0.6.
